One test addresses T1, cathepsin G (Homo sapiens, UniProt P08311).
T1 construct: from tissue; host or cells: human white blood cells
T1 sequence (P08311 21-244 limits assumed): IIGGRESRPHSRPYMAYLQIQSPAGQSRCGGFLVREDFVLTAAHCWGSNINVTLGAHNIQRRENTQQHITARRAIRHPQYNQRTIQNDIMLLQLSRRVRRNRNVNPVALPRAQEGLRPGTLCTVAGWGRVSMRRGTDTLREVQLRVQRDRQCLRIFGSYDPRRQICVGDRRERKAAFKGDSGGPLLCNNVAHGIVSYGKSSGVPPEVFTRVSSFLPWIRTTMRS
The test can be described thus: Inhibition of cathepsin G (CTG). It counts as biochemical.

The target in test [1] is T2, human leukocyte elastase (HLE) (Homo sapiens, UniProt P08246).
T2 construct: from tissue; host or cells: human white blood cells
T2 sequence (P08246 30-247 limits assumed): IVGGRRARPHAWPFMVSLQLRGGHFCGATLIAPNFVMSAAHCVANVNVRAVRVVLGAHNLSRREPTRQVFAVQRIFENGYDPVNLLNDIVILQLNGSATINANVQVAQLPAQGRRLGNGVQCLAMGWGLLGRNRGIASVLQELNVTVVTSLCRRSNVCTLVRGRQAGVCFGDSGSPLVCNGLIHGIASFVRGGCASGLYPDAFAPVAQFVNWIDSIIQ
The test can be described thus: Enzyme Assay for Inhibition of HLE. It counts as biochemical. The conditions noted are these: HLE 10 nM, pH 7.6, 10 minute preincubation, 30° C. As for the experimental part: Enzyme Assay for Inhibition of HLE:
Enzyme: Purified elastase from human white blood cells.
Substrate: MeO-succinyl-L-alanyl-L-alanyl-L-prolyl-L-valine-p-nitro-anilide(NA).
Reaction Mixture: 10 mM phosphate buffer (pH 7.6), 500 mM NaCl, 10% dimethylsulfoxide (DMSO), 0.35 mM substrate.
The enzyme activity was determined by monitoring the increase in absorbance at 410 nm caused by the hydrolysis of chromogenic substrates. Inhibition of enzyme by the compounds described were determined after a 10 minute preincubation with the enzyme in reaction mixture minus substrate. Reaction was initiated by the addition of substrate. The concentration of human leukocyte elastase used for assay was at 10 nM.
HLE, CTG, PPE and CTD were tested at 30° C. and the others were […]

Setting [2] is: cathepsin G 50 nM, pH 7.5, 10 minute preincubation, 30° C., read-out: IC50 CTG (converted).

Read-outs that look alike come from different tables or passages of the source. A value given as a limit tells only on which side of the number the result lay.

Experimental for cathepsin G: Enzyme: Purified Cathepsin G from human white blood cells
Substrate: N-succinyl-L-alanyl-L-alanyl-L-phenylalanyl-L-phenylalanine -p-NA.
Reaction mixture: 10 mM Phosphate buffer (pH 7.5), 500 mM NaCl, 10% DMSO, 2.0 mM Substrate.
Except for Cathepsin D, the enzyme activities were determined by monitoring the increase in absorbance at 410 nm caused by the hydrolysis of chromogenic substrates.
Inhibition of enzymes by the compounds described were determined after a 10 minute preincubation with enzymes in reaction mixtures minus substrate. Reactions were initiated by the addition of substrates. The concentration used for assays were porcine pancreatic elastase at 240 nM and human Cathepsin G at 50 nM.

As a reminder, the IC50 is the concentration that inhibits the measured activity by half. As for `CC1=C(C(=O)OC(c2ccccc2)c2ccccc2)N2C(=O)[C@H](Cl)[C@H]2S(=O)(=O)C12CC2(c1ccccc1)c1ccccc1` (single isomer, unassigned) [Example 1, Benzhydryl 7α-chloro-2-spiro(2',2'-diphenyl) cyclopropyl-3-methyl-3-cephem-4-carboxylate-1,1-dioxide], the values for the IC50 (at cathepsin G (setting [2]); in test [1]) were 20 µM and 4.75 nM, respectively.
As for `CC1=C(C(=O)OC(c2ccccc2)c2ccccc2)N2C(=O)[C@H](Br)[C@H]2S(=O)(=O)C12CC2(c1ccccc1)c1ccccc1` (single isomer, unassigned) [Example 2, benzhydryl 7α-bromo-2-spiro(2', 2'-diphenyl) cyclopropyl-3-methyl-3-cephem-4-carboxylate-1,1-dioxide], the IC50 is above 16.2 µM at cathepsin G (setting [2]) and 33.6 nM in test [1].
On to `CC1=C(C(=O)OC(c2ccccc2)c2ccccc2)N2C(=O)[C@H](Br)[C@H]2S(=O)(=O)C12CC2(c1ccc(Cl)cc1)c1ccc(Cl)cc1` (single isomer, unassigned) [Example 12, Benzhydryl 7α-bromo-2-spiro [2',2'-(4',4'-dichloro)diphenyl]cyclopropyl-3-methyl-3-cephem-4-carboxylate-1,1-dioxide], for which the IC50 was 19.4 µM at cathepsin G (setting [2]) and 10.1 nM in test [1].
As to `CC1=C(C(=O)OC(c2ccccc2)c2ccccc2)N2C(=O)[C@H](Br)[C@H]2S(=O)(=O)C12CC2(c1ccc(F)cc1)c1ccc(F)cc1` (single isomer, unassigned) [Example 13, Benzhydryl 7α-bromo-2-spiro[2',2'-(4',4'-difluoro)diphenyl] cyclopropyl-3-methyl-3-cephem-4-carboxylate-1,1-dioxide], the IC50 is 19 µM on cathepsin G (setting [2]) and 5.07 nM in test [1].
On to `CC1=C(C(=O)OC(C)(C)C)N2C(=O)[C@H](Br)[C@H]2S(=O)(=O)C12CC2(c1ccccc1)c1ccccc1` (stereo partly drawn) [Example 3, t-Butyl 7α-bromo-2-spiro(2',2'-diphenyl) cyclopropyl-3-methyl-3-cephem 4-carboxylate-1,1-dioxide], for which the IC50 was 40 µM on cathepsin G (setting [2]) and 4.96 nM in test [1].
For `CC1=C(C(=O)N2CCCC2)N2C(=O)[C@H](Br)[C@H]2S(=O)(=O)C12CC2(c1ccccc1)c1ccccc1` (stereo partly drawn) [Example 6, 7α Bromo-2-spiro(2',2'-diphenyl)cyclopropyl-3-methyl-3-cephem-4-pyrrolidine carboxamide-1,1-dioxide], in that order: above 39 µM and 10.7 nM.
Turning to `CCO[C@H]1C(=O)N2C(C(=O)OCC(Cl)(Cl)Cl)=C(C)C3(CC3(c3ccccc3)c3ccccc3)S(=O)(=O)[C@H]12` (stereo partly drawn) [Example 7, 2,2,2-Trichloroethyl-7α-ethoxy-2-spiro(2',2'-diphenyl)cyclo-propyl-3-methyl-3-cephem-4-carboxylate-1,1-dioxide], the half-maximal inhibitory concentration (IC50) on cathepsin G (setting [2]) was 0.32 µM; in test [1], 5.47 nM.
For the molecule `CO[C@H]1C(=O)N2C(C(=O)OCC(Cl)(Cl)Cl)=C(C)C3(CC3(c3ccccc3)c3ccccc3)S(=O)(=O)[C@H]12` (stereo partly drawn) [Example 8, 2,2,2-Trichloroethyl-7α-methoxy-2-spiro(2',2'-diphenyl) cyclopropyl-3-methyl-3-cephem-4-carboxylate-1,1-dioxide], the values for the IC50 (at cathepsin G (setting [2]); in test [1]) were 0.403 µM and 4.38 nM, respectively.
Turning to `CO[C@H]1C(=O)N2C(C(=O)OC(c3ccccc3)c3ccccc3)=C(C)C3(CC3(c3ccccc3)c3ccccc3)S(=O)(=O)[C@H]12` (stereo partly drawn) [Example 9, Benzhydryl 7α-methoxy-2-spiro (2',2'-diphenyl) cyclopropyl-3-methyl-3-cephem-4-carboxylate-1,1-dioxide], the figures for the IC50 (at cathepsin G (setting [2]); in test [1]) were above 10 µM and 3.63 nM, respectively.
Regarding `CO[C@H]1C(=O)N2C(C(=O)N3CCCC3)=C(C)C3(CC3(c3ccccc3)c3ccccc3)S(=O)(=O)[C@H]12` (stereo partly drawn) [Example 10, 7α-Methoxy-2-spiro (2',2'-diphenyl)cyclopropyl-3-methyl-3-cephem-4-pyrrolidine carboxamide-1,1-dioxide], the IC50 at cathepsin G (setting [2]) was above 30.9 µM; in test [1], 44.7 nM.
Consider `CCOC(=O)C1CC12C(C)=C(C(=O)OC(c1ccccc1)c1ccccc1)N1C(=O)[C@H](Br)[C@H]1S2(=O)=O` (stereo partly drawn) [Example 13 (1), Benzhydryl 7α-bromo-2-spiro(2'-ethoxycarbonyl)cyclopropyl-3-methyl-3-cephem-4-carboxylate-1,1-dioxide], for which the values for the IC50 (on cathepsin G (setting [2]); in test [1]) were 13 µM and 64.4 nM, respectively.
Turning to `CC1=C(C(=O)OC(c2ccccc2)c2ccccc2)N2C(=O)[C@H](Br)[C@H]2S(=O)(=O)C12CC2(C)c1ccccc1` (stereo partly drawn) [Example 13 (2), Benzhydryl 7α-bromo-2-spiro(2'-phenyl-2'-methyl) cyclopropyl-3-methyl-3-cephem-4-carboxylate-1,1-dioxide], the IC50 against cathepsin G is 40 µM; in test [1], 4.73 nM.

The values above are taken from patent US5264429A, “2-spirocyclopropyl cephalosporin sulfone derivatives” (SynPhar Laboratories, Inc., priority 1991, dated 1993).
